Test results published in patent publication US20170027973A1, “MODULARION OF INVARIANT NATURAL KILLER T CELLS IN THE TREATMENT OF SEPSIS” (LONDON HEALTH SCIENCES CENTRE RESEARCH INC., priority 2014, published 2017).

How the values were obtained:
[1] = test system: surface TCR of iNKT cells; settings: after 24 hours; cited from earlier work
[2] = test system: Jα18−/− mice with IAS; test: IAS model in iNKT-deficient Jα18−/− mice: murine sepsis score; assay type: in vivo, mouse
Experimental: FIG. 4: Th2-polarizing glycolipid OCH reduces disease severity in IAS. C57BL/6 (B6) mice were concomitantly injected i.p. with fecal slurry (FS; 500 μL of 90 mg/mL solution) to induce intra-abdominal sepsis (IAS), and vehicle, OCH, or KRN7000. […] (c) iNKT-deficient Jα18−/− mice were given FS (500 μL of a 90 mg/mL solution) to induce IAS and concomitantly treated with OCH or vehicle. Murine sepsis scores were similar between vehicle and OCH-treated mice (n=3 per group). […] The percentages of T cells remained unchanged with administration of iNKT-specific glycolipid agonists (n=6, n=4, n=6, and n=3 for vehicle, OCH, Vehicle (KRN7000) and KRN7000 groups respectively). *p<0.05, **p<0.01 by Mann-Whitney U test. (d) Bacterial counts in blood and multiple organs were similar between vehicle-, OCH-, and KRN7000-treated mice with sepsis (n=7-9 per group). Data are representative of at least three independent experiments.
Stool from the cecum of euthanized naïve B6 mice was expressed through an enterotomy, homogenized, and suspended in 0.9% normal saline (NS) to produce a fecal slurry at a final concentration of 90 mg/mL, for use in experiments on the same day. […] The mice were monitored and scored by two independent investigators—one of whom was blinded to the treatment—every 2-3 hours for the first 12 hours, and then every 1-2 hours thereafter. […]

Compound | potency at down-regulating the TCR relative to OCH [1] | disease severity (MSS) versus vehicle [2]
CCCCCCCCCCCCCCCCCCCCCCCCCC(=O)N[C@@H](CO[C@H]1O[C@H](CO)[C@H](O)[C@H](O)[C@H]1O)[C@H](O)[C@H](O)CCCCCCCCCCCCCC [KRN7000, reference compound] | approximately 10 fold | –
CCCCCCCCCCCCCCCCCCCCCCCC(=O)N[C@@H](COC1OC(CO)C(O)C(O)C1O)[C@H](O)[C@H](O)CCCCC (some centres unmarked) [OCH] | – | did not observe any differences
